# Test results published in patent US20190308988A1, “OPIOID RECEPTOR ANTAGONIST PRODRUGS” (Nirsum Laboratories, Inc., priority 2017, published 2019).
# Assay: Plasma stability, human plasma (HPLC-MS)
# Format: in vitro ADME
# Details: 2 μM, 37° C., 15 min
# Protocol: Plasma Stability Determination of the Test Compounds in Rat, Dog, Cynomolgus Monkey and human plasma is performed using HPLC-MS. For rat, incubations are carried out in 96-well polypropylene plates in 5 aliquots of 70 μL each (one for each time point). […] Five time points are analyzed (0, 15, 120, 480 and 1440 min). […] All incubations are performed in duplicates. The samples are analyzed by HPLC-MS. The percentage of parent compound remaining after incubation in plasma is determined.
smiles,measurement,value
"C=C1CC[C@@]2(O)C3Cc4ccc(OCOC(=O)OCCCCCCCCCCCC)c5c4[C@@]2(CCN3CC2CC2)[C@H]1O5 [Compound 24, (((4aS,7aS,12bS)-3-(cyclopropylmethyl)-4a-hydroxy-7-methylene-2,3,4,4a,5,6,7,7a-octahydro-1H-4,12-methanobenzofuro[3,2-e]isoquinolin-9-yl)oxy)methyl dodecyl carbonate]","% remaining at time point in minutes, 15 min",94%
